Results reported in article PMC12140054, “Small glycomimetic antagonists of the cytomegalovirus glycoprotein UL141 prevent binding to TRAIL death receptor” (The Journal of Biological Chemistry, 2025).
Read-outs that look alike come from different tables or passages of the source.

Tests used:
A549 cells = assay: Cytotoxicity on A549 cells (data not shown); format: cell-based
VERO-E6 cells = assay: Cytotoxicity on VERO-E6 cells (data not shown); format: cell-based
[1] = system: human foreskin fibroblasts HFF-BJ (ATCC CRL-2522 cells); assay: MTT cytotoxicity / cell viability assay; format: cell-based; details: 0.1 to 50 μM, 72 h
From the text: Cell viability as visualized by fold change of formazan-positive cells normalized to the untreated control and DMSO. Viability reduced below 40% represents the cytotoxic zone, below the dotted line in each plot. The number of biological replicates is indicated.
Human foreskin fibroblasts (HFF), a type of primary fibroblast derived from neonatal foreskin tissue, were chosen for this bioassay due to their distinct advantages in studies involving HCMV. For instance, the HHF cells provide a relevant and effective platform due to their unique susceptibility to HCMV infection, ability to mimic human immune responses, and relevance to clinical scenarios. […] HFF cells were incubated with each compound at concentrations ranging from 0.1 to 50 μM and any possible cytotoxic effect was monitored for 72 h. Tested compounds were dissolved in dimethyl sulfoxide (DMSO). […] The cytotoxic effect (CTE) is represented here as the concentration that causes a reduction of more than 40% in the number of viable cells.
Cells were seeded in a 96-well plate at a density of 1 × 10^4 cells per well for the measurement of cytotoxicity of the compounds (without UVA irradiation). […] Cells after treatment were incubated for […]. Untreated cells were considered negative control, and DMSO-treated cells (at appropriate concentration) were considered vehicle control. The classical MTT assay (3-(4,5-dimethyl thiazolyl-2)-2,5-diphenyltetrazolium bromide) ([68]) was used to measure cellular metabolic activity as an indicator of cell viability, proliferation, and cytotoxicity. Briefly, 0.5 mg/ml MTT solution was dispensed in each well of the 96-well plate and incubated for 4 h. Afterward, the MTT solution was removed and 200 μl of 100% DMSO was added to each well and the plate was placed on a microplate shaker for 5 min to dissolve the formazan granules. The absorbance was measured at 550 nm using a spectrophotometer. DMSO and MTT were purchased from Thermo Fisher Scientific. The darker the solution, the greater the number of viable, metabolically active cells. All experimental compounds were measured using at least 2 to 3 replicates for each and the averaged values from three independent experiments (n = 3) are presented. Cell viability was visualized by fold change of formazan-positive cells normalized to the untreated control and DMSO. Viability reduced below 40% represents the cytotoxic zone. All evaluations were performed using GraphPad Prism 9.5.0 (GraphPad Software, LLC), if other software was not explicitly mentioned.

HCMV UL141 [2] = target: T1, HCMV UL141 (Human cytomegalovirus, UniProt Q6RJQ3); assay: biochemical; format: binding; details: for Rmax / koff / kon: UL141 immobilized, substance as analyte
T1 construct: we expressed and purified the full-length recombinant UL141 (amino acids 30–300); made in house
Procedure: (§1) To prepare HCMV UL141 for binding studies, biotinylation was performed using the BiotinTag Micro Biotinylation Kit (Sigma-Aldrich). Purified UL141 protein (50 μg in 50 μl) was mixed with 50 μl of BiotinTag reaction buffer provided in the kit. Sulfo-NHS-Biotin reagent was freshly prepared by dissolving the vial contents in 1 ml of sterile water. A calculated volume of the biotin reagent was added to achieve a 20:1 M excess of biotin to protein. The reaction mixture was incubated for 30 min at room temperature with gentle mixing to ensure efficient labeling. Following incubation, unreacted biotin was removed using the desalting column included in the kit. The biotinylated UL141 protein was eluted in 50 mM Hepes, pH 7.5, 150 mM NaCl. Biotin incorporation was verified using a colorimetric biotin quantification assay (e.g., HABA assay). The biotinylated protein was then quantified spectrophotometrically using a NanoDrop instrument and concentrated to the desired level for Biacore or ELISA binding studies. The biotinylated protein was stored at 4 °C for short-term use or −80 °C for long-term storage to maintain stability.
(§2) The sensor surface of an SA chip (Cytiva) was preconditioned with HBS-EP buffer (10 mM Hepes, 150 mM NaCl, 3 mM EDTA, 0.005% Tween-20) to stabilize the baseline and remove any loosely bound streptavidin. Before use, the buffer was filtered through a 0.2 μm polystyrene filter and degassed under vacuum for 10 min to eliminate air bubbles. Biotinylated HCMV UL141 was immobilized on the SA chip, maintaining biotinylation at 0.5 to 1.5 mol per mole of protein. Excess biotin was removed via gel filtration. UL141 was injected at 30 μl/min, achieving maximum immobilization (4000–6000 RU), followed by washing with running buffer. Residual unbound proteins were optionally removed with a 2 M NaCl pulse. To ensure optimal SPR signal detection, which depends on the analyte mass bound to the ligand, relatively high amounts of ligand were immobilized on the sensor chip to achieve a significant response signal upon binding of the small compound. […] Regeneration of the chip surface, when necessary, was performed using 5 mM NaOH. Control injections of zero concentrations and duplicate injections of selected concentrations were included to validate surface regeneration. […]

UL141 = details: cited from earlier work; for Kd: UL141 (ectodomain) in solution
HCMV UL141 [3] = target: T2, HCMV UL141 (Human cytomegalovirus, UniProt Q6RJQ3); assay: biochemical; format: binding
T2 construct: we expressed and purified the full-length recombinant UL141 (amino acids 30–300); made in house
T2 sequence (Q6RJQ3 whole entry, looked up): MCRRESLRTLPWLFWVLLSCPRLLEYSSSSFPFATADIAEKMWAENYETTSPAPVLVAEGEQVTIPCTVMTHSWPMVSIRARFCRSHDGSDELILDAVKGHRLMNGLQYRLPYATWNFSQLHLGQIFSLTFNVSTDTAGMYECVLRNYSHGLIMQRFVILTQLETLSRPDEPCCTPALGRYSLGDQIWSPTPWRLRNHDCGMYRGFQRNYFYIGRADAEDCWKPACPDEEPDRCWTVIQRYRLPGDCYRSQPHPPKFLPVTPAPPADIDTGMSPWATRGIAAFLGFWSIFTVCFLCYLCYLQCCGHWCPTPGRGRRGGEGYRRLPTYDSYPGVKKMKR
Procedure: as §1, §2

[4] = target: TRAIL-R2-Fc (Homo sapiens) (UniProt O14763); assay: SPR; details: cited from earlier work
TRAIL-R2 (Homo sapiens) = TRAIL-R2 (Homo sapiens) (UniProt O14763); assay: SPR; details: cited from earlier work
[5] = UL141 immobilized (ligand), substance in solution (analyte), 1:1 Langmuir model, 25 °C
[6] = 1:1 Langmuir model, listed as cmp 15
[7] = 1:1 Langmuir model, listed as cmp 20
[8] = TRAIL-R2-Fc immobilized, ref ([19])
[9] = TRAIL-R2-Fc immobilized, UL141 in solution, ref ([19])
[10] = UL141-Fc immobilized, TRAIL-R2 in solution, ref ([17])

Row | Compound | concentration at which cytotoxicity with apoptotic properties begins (A549 cells) | concentration at which cytotoxicity with apoptotic properties begins (VERO-E6 cells) | cytotoxicity (in words) [1] | Kd (HCMV UL141 [2]; [5]) | Rmax (HCMV UL141 [2]) | koff (HCMV UL141 [2]; 1:1 Langmuir model) | kon (HCMV UL141 [2]; 1:1 Langmuir model) | other results
1 | CCCCCCCCCCCCCCO[C@@H]1O[C@H](CO)[C@@H](O)[C@H](O)[C@H]1O [Compound 1] | ≥ 5000 ng/mL | ≥ 5000 ng/mL |  |  |  |  |  | 
2 | CCCCCCCCCCCCCCO[C@@H]1O[C@H](CO)[C@H](O)[C@H](O)[C@H]1O [Compound 3] | ≥ 5000 ng/mL | ≥ 5000 ng/mL |  |  |  |  |  | 
3 | CCCCCCCCCCCCCCO[C@H]1O[C@H](CO)[C@@H](O)[C@H](O)[C@@H]1O [Compound 5] | ≥ 5000 ng/mL | ≥ 5000 ng/mL | unfavorable level of cytotoxicity |  |  |  |  | 
4 | CCCCCCCCCCCCN1C[C@H](O)[C@H](O)[C@@H]1CO [Compound 9] | ≥ 5000 ng/mL | ≥ 5000 ng/mL | unfavorable level of cytotoxicity |  |  |  |  | 
5 | C[C@H](O)[C@H]1[C@@H](O)[C@@H](O)CN1Cc1ccc(I)cc1 [Compound 14, (2S,3R,4S)-2-((S)-1-hydroxyethyl)-1-(4-iodobenzyl)pyrrolidine-3,4-diol] |  |  | no cytotoxicity was detected | 24 µM | 24 | 0.153 s⁻¹ | 6370 M⁻¹ s⁻¹ | Kd (HCMV UL141 [2]; binding to UL141, SPR): 24 µM; kon (HCMV UL141 [2]; 1:1 Langmuir model, listed as cmp 14): (0.63 ± 0.002) × 10^4 M^−1s^−1
6 | CC(O)C1C(O)C(O)CN1Cc1ccccc1 (stereo not shown) [Compound 15] |  |  | no cytotoxicity was detected | 200 µM | 27 | 0.117 s⁻¹ | 586 M⁻¹ s⁻¹ | Kd (HCMV UL141 [2]; binding to UL141, SPR): 199 µM; koff (HCMV UL141 [2]; [6]): (1.17 ± 0.004) × 10^−1 s^−1; kon (HCMV UL141 [2]; [6]): (0.06 ± 0.002) × 10^4 M^−1s^−1
7 | CC(O)C1C(O)C(O)CN1Cc1ccc(I)cc1 (stereo not shown) [Compound 17] |  |  | no cytotoxicity was detected | 20.3 µM | 20 | 0.0508 s⁻¹ | 2500 M⁻¹ s⁻¹ | koff (HCMV UL141 [2]; 1:1 Langmuir model, listed as cmp 17): (0.51 ± 0.001) × 10^−1 s^−1
8 | CC1C(O)C(O)CN1Cc1ccc(I)cc1 (stereo not shown) [Compound 20] |  |  | no cytotoxicity was detected | 29.1 µM | 21 | 0.0879 s⁻¹ | 3020 M⁻¹ s⁻¹ | Kd (HCMV UL141 [2]; binding to UL141, SPR): 29 µM; koff (HCMV UL141 [2]; [7]): (0.88 ± 0.015) × 10^−1 s^−1; kon (HCMV UL141 [2]; [7]): (0.30 ± 0.007) × 10^4 M^−1s^−1
9 | TRAIL-R2-Fc: TRAIL-R2 recombinantly prepared as an Fc-fusion protein |  |  |  |  |  |  |  | Kd (UL141; [8]): 0.00596 µM; koff (UL141; [9]): 7.21e-05 s⁻¹; kon (UL141; [9]): 12100 M⁻¹ s⁻¹
10 | TRAIL-R2: recombinant human TRAIL death receptor 2 ectodomain (amino acids 58–184), positive control in SPR |  |  |  |  |  |  |  | Rmax (HCMV UL141 [3]; UL141 immobilized, substance as analyte): 872; Kd (HCMV UL141 [3]; full-length UL141 and TRAIL-R2, SPR, read-out: affinity (KD)): 0.00599 µM; Kd (UL141; [8]): 0.00596 µM; koff (UL141; [10]): 0.00564 s⁻¹; kon (UL141; [10]): 264000 M⁻¹ s⁻¹
11 | UL141 ECD (from UniProt Q6RJQ3) |  |  |  |  |  |  |  | Kd [4]: 0.00596 µM
12 | UL141-Fc (from UniProt Q6RJQ3) |  |  |  |  |  |  |  | Kd (TRAIL-R2 (Homo sapiens)): 0.0214 µM
